From patent US20250243176A1, “(S)-1-(1-ACRYLOYLPIPERIDIN-3-YL)-2-FLUORO-5,6,7,8,9,10-HEXAHYDROCYCLO HEPTA[B]INDOLE-4-CARBOXAMIDE, AND RELATED CRYSTALLINE FORMS, COMPOSITIONS, AND METHODS THEREOF” (GB005, Inc., priority 2021, published 2025)
≈ marks a conversion by molar mass, not a printed value. Read-outs that look alike come from different tables or passages of the source.

Legend:
[1] = molecular target: T1, Bruton's tyrosine kinase (BTK) (Homo sapiens, UniProt Q06187); assay: BTK whole blood functional assay; assay type: cell-based
T1 construct: from tissue; host or cells: whole blood
T1 sequence (Q06187 whole entry, species assumed): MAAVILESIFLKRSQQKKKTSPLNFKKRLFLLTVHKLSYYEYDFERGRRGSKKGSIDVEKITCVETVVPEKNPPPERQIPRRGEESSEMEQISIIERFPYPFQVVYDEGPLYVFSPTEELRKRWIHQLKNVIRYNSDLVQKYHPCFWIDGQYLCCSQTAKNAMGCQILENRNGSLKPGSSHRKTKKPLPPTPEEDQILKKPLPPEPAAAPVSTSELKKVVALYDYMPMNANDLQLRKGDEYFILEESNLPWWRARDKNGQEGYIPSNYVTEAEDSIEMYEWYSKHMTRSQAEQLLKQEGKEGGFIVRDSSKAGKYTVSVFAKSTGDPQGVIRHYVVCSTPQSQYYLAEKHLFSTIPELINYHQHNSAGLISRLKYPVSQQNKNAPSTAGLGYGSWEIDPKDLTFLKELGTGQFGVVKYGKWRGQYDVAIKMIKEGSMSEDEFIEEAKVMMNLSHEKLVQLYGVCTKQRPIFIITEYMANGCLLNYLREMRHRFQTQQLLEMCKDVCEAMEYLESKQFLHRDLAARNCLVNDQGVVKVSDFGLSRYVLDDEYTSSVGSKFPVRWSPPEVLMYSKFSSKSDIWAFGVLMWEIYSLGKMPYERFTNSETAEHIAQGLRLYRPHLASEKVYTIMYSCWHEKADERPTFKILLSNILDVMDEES
From the text: (§1) (S)-1-(1-acryloylpiperidin-3-yl)-2-fluoro-5,6,7,8,9,10-hexahydrocyclohepta[b]indole-4-carboxamide, hereinafter referred to as “Compound 1”, is an orally available, selective, potent inhibitor of Bruton's tyrosine kinase (BTK), thereby providing potential treatment options in BTK-driven diseases. The potency of Compound 1 for BTK inhibition is in the nM range in both cell-free enzymatic and whole blood functional assays.

[2] = system: 349 kinases; assay: Kinome scan, panel; assay type: biochemical; details: kinome scan against 349 kinases
From the text: as §1

[3] = Solubility testing in aqueous media at various pH (Form III); assay type: physicochemical; details: thermodynamic from solid
Experimental: 0.833 mL concentrated hydrochloric acid was diluted to 100 mL with water (pH=1.0).
Added appropriate amount of water to 0.1N HCl, adjust the pH to 1.2.
KH2PO4 (1360.0 mg) and NaOH (310.0 mg) are mixed in a 200 mL volumetric flask. Water was added to dissolve the solid and dilute to the volume. The flask was shaken to achieve good mixing. (pH=7.42).
Solubility was measured in pH 1.0 water, pH 1.2 buffer and pH 7.4 buffer at room temperature and 37° C. About 10-15 mg of sample was weighed into sample vials and then 2.0/3.0 mL of 0.1 N HCl solution, pH 1.2 buffer and pH 7.4 buffer media, and water were added, respectively. Samples were run in duplicate for each medium. The suspensions were shaken at room temperature or 37° C. Residual solid was collected for XRPD analysis, though no form change occurred during testing. In all instances, very low solubility was observed.

[4] = Further solubility testing in excipients, HPLC; assay type: physicochemical
Experimental: Compound 1 (˜0.5 g) was added to each excipient until visually saturated. The mixtures were incubated on a temperature-controlled mixer with glass beads to facilitating mixing, for at least 48 hours at room temperature (liquid excipients) or 40° C. (semisolid excipients). The samples were then centrifuged using 0.45 μm PVDF filter to separate the liquid and solid portions. The amount of dissolved compound in the filtrate was quantified by HPLC. XRPD analysis of any solid powder confirmed there was no change in form. The solubility results are presented in Table 16 and show Compound 1 had high solubility (>30 mg/g) in most of the screened excipients.

[5] = Phase 1 multiple ascending dose plasma pharmacokinetics; assay type: in vivo, human; details: for Tmax / half-life / Cmax / AUC(0-inf): fed; for half-life / Cmax / AUC(0-inf): human, plasma, oral; for half-life: 15 mg; for AUC(0-inf): read-out: AUC0-inf or tau
From the text: Part A is a randomized, double-blind, placebo-controlled, single- and -multiple-dose study with staggered dose escalation, administered in the fed state (standard moderate-fat meal). Part A consists of […] (up to 7 single-ascending dose [SAD] cohorts [Cohorts 1-6 & 14], and up to 3 multiple ascending dose [MAD] cohorts [Cohorts 7-9]). Subjects are randomized in a 3:1 ratio per cohort to receive either: Compound 1 Formulation A (N=6 for Cohorts 1-4 and N=9 for Cohorts 5-9 & 14); or placebo (PBO; N=2 for Cohorts 1-4 and N=3 for Cohorts 5-9 & 14).
• Cohorts 7 and 8: Day 1, all subjects begin once-daily multiple dose administration of Formulation A Compound 1 or placebo for 10 days. • Cohort 9: Day −1, all subjects receive placebo. • Day 1, all subjects begin once-daily multiple dose administration of • Compound 1 or placebo for 10 days.
Results: Preliminary pharmacokinetic results from 1 completed MAD cohort are presented, including 12 subjects receiving 15 mg once daily for 10 days randomized in a 3:1 ratio to receive Compound 1 or placebo) in a fed state (moderate-fat meal). […] Preliminary PK parameters are presented in Table 47 (all pharmacokinetic parameters of […] are reported as Mean (% coefficient of variation), except for Tmax and t1/2, which are reported as Median (Min, Max), and in FIG. 27 showing single and multiple dose plasma profiles (Mean±SD).

[6] = pH 7.4 buffer (KH2PO4/NaOH), aqueous buffer, pH 7.4 Buffer, 37° C.
[7] = pH 7.4 buffer (KH2PO4/NaOH), aqueous buffer, pH 7.4 Buffer, RT
[8] = simulated gastric fluid, pH 1.0 (0.1N HCl), RT
[9] = simulated gastric fluid, pH 1.2 Buffer, 37° C.
[10] = both sexes, Cohort 7, 15 mg once daily, Day 1, mean
[11] = Cohort 7, 15 mg once daily, Day 10, mean

**Q.** What does the source list for `C=CC(=O)N1CCC[C@@H](c2c(F)cc(C(N)=O)c3[nH]c4c(c23)CCCCC4)C1` [Compound 1, (S)-1-(1-acryloylpiperidin-3-yl)-2-fluoro-5,6,7,8,9,10-hexahydrocyclohepta[b]indole-4-carboxamide]?
**A.** potency for BTK inhibition [1]: nM range; kinase selectivity [2]: high kinase selectivity; solubility at 4 h [3, 6]: 0.8 µg/mL (≈ 2.09 µM); solubility at 24 h [3, 6]: 0.8 µg/mL (≈ 2.09 µM); solubility at 24 h [3, 7]: 0.8 µg/mL (≈ 2.09 µM); solubility at 48 h [3, 7]: 1.7 µg/mL (≈ 4.43 µM); solubility at 4 h [3, 8]: 0.7 µg/mL (≈ 1.83 µM); solubility at 24 h [3, 8]: 0.8 µg/mL (≈ 2.09 µM); solubility at 48 h [3, 8]: 1.6 µg/mL (≈ 4.17 µM); solubility at 4 h [3, 9]: 0.9 µg/mL (≈ 2.35 µM); solubility at 24 h [3, 9]: 0.9 µg/mL (≈ 2.35 µM); solubility at 4 h ([3]; Water (pH 5.0), 37° C.): 0.6 µg/mL (≈ 1.56 µM); solubility at 24 h ([3]; Water (pH 5.0), 37° C.): 0.7 µg/mL (≈ 1.83 µM); Solubility ([4]; Capryol PGMC, at least 48 hours, RT (liquid) or 40° C. (semisolid excipients)): 38.1 mg/g; Solubility ([4]; Gelucire 44/14, at least 48 hours, RT (liquid) or 40° C. (semisolid excipients)): 48.9 mg/g; Solubility ([4]; Gelucire 50/13, at least 48 hours, RT (liquid) or 40° C. (semisolid excipients)): 45.9 mg/g; Solubility ([4]; Kolliphor ELP, at least 48 hours, RT (liquid) or 40° C. (semisolid excipients)): 36.5 mg/g; Solubility ([4]; Kolliphor HS 15, at least 48 hours, RT (liquid) or 40° C. (semisolid excipients)): 53.6 mg/g; Solubility ([4]; Kolliphor RH40, at least 48 hours, RT (liquid) or 40° C. (semisolid excipients)): 52.4 mg/g; Solubility ([4]; Labrafil M 1944 CS, at least 48 hours, RT (liquid) or 40° C. (semisolid excipients)): 10.7 mg/g; Solubility ([4]; Labrafil M 2125 CS, at least 48 hours, RT (liquid) or 40° C. (semisolid excipients)): 9.3 mg/g; Solubility ([4]; Labrasol ALF, at least 48 hours, RT (liquid) or 40° C. (semisolid excipients)): 68.1 mg/g; Solubility ([4]; Lauroglycol FCC, at least 48 hours, RT (liquid) or 40° C. (semisolid excipients)): 16.0 mg/g; Solubility ([4]; Maisine CC, at least 48 hours, RT (liquid) or 40° C. (semisolid excipients)): 16.7 mg/g; Solubility ([4]; Masester E8120, at least 48 hours, RT (liquid) or 40° C. (semisolid excipients)): 65.3 mg/g; Solubility ([4]; Miglyol 812N, at least 48 hours, RT (liquid) or 40° C. (semisolid excipients)): 2.9 mg/g; Solubility ([4]; Oleic Acid, at least 48 hours, RT (liquid) or 40° C. (semisolid excipients)): 21.0 mg/g; Solubility ([4]; PEG 400, at least 48 hours, RT (liquid) or 40° C. (semisolid excipients)): 77.3 mg/g; Solubility ([4]; Peceol, at least 48 hours, RT (liquid) or 40° C. (semisolid excipients)): 22.8 mg/g; Solubility ([4]; Sesame Oil, at least 48 hours, RT (liquid) or 40° C. (semisolid excipients)): 1.9 mg/g; Solubility ([4]; Span 80, at least 48 hours, RT (liquid) or 40° C. (semisolid excipients)): 12.2 mg/g; Solubility ([4]; Transcutol HP, at least 48 hours, RT (liquid) or 40° C. (semisolid excipients)): 118.6 mg/g; Solubility ([4]; Tween 20, at least 48 hours, RT (liquid) or 40° C. (semisolid excipients)): 48.6 mg/g; Solubility ([4]; Tween 80, at least 48 hours, RT (liquid) or 40° C. (semisolid excipients)): 49.0 mg/g; Solubility ([4]; Vitamin E TPGS, at least 48 hours, RT (liquid) or 40° C. (semisolid excipients)): 40.8 mg/g; Solubility ([4]; in most of the screened excipients): > 30 mg/g; accumulation upon once-daily dosing ([5]; 15 mg once daily for 10 days): Minimal to no accumulation; Tmax ([5]; Cohort 7, 15 mg once daily, Day 1, median): 1.5 br; Tmax ([5]; Cohort 7, 15 mg once daily, Day 10, median): 1.5 br; half-life ([5]; both sexes, MAD cohort, 15 mg once daily for 10 days, read-out: terminal half-life (converted)): ~3 h; Cmax [5, 10]: 85.8 ng/mL; AUC(0-inf) [5, 10]: 312 ng·h/mL; half-life ([5]; Cohort 7, 15 mg once daily, Day 1, median, read-out: T1/2 (converted)): 3.19 h; half-life ([5]; Cohort 7, 15 mg once daily, Day 10, median, read-out: T1/2 (converted)): 3.37 h; Cmax [5, 11]: 102 ng/mL; AUC(0-inf) [5, 11]: 353 ng·h/mL
